# Test results published in article PMC10247784, “Physiological activation of human and mouse bitter taste receptors by bile acids” (Communications Biology, 2023).
# Biological target: T1, mouse Tas2r105 (Mus musculus, UniProt Q9JKT4)
# T1 construct: expressed in transfected cells; host or cells: HEK293T-Gα16gust44
# T1 sequence (Q9JKT4 1-300): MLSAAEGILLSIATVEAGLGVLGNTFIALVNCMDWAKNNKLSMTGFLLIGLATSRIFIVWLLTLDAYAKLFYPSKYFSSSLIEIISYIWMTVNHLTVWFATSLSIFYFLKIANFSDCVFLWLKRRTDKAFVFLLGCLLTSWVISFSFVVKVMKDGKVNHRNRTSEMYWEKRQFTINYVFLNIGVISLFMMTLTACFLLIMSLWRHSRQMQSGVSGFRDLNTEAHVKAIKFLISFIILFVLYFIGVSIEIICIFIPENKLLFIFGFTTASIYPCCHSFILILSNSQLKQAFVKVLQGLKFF
# Assay: Calcium imaging assay (FLIPR), HEK293T-Gα16gust44 cells transfected with mouse Tas2r105
# Format: cell-based
# Method: This set of bile acids was chosen because of their commercial availability in high purities, their diversity within the class of bile acids and their previous detection and quantitation in human blood. Stock solutions were prepared in DMSO.
# As basal growth medium for the HEK293T-Gα16gust44 cell line[17],[59] served Dulbecco’s modified eagle medium (DMEM) (Thermo Fisher Scientific, Darmstadt, Germany) supplemented with 10 % fetal bovine serum (Sigma-Aldrich, Steinheim, Germany), 2 mM L-glutamine (Sigma-Aldrich, Steinheim, Germany), 100 units/ml penicillin (Sigma Aldrich, Steinheim, Germany) and 100 µg/ml streptomycin (Sigma Aldrich, Steinheim, Germany). Growth conditions were 37 °C, 5 % CO2 and saturated air-humidity[60].
# HEK293T-Gα16gust44 cells were seeded on poly-D-lysine (10 µg/ml) coated 96-well plates to reach a confluence of 40-60 % the next day. For transient transfection 150 ng of plasmid DNA containing the receptor of interest and 0.3 µl lipofectamine 2000 (Thermo Fisher Scientific, Darmstadt, Germany) per well were used and transfection took place according to the manual of lipofectamine 2000. […] The empty vector DNA (mock) was transfected as negative control[14],[41].
# Cells were loaded using the calcium-sensitive fluorescent dye Fluo-4-AM (Abcam, Cambridge, Great Britain) in the presence of 2.5 mM probenecid (Sigma-Aldrich, Steinheim, Germany) the day after transfection[13],[41]. 1 h after loading, cells were washed with C1 buffer using a BioTek Cell Washer, incubated in the dark for half an hour and washed again. For automated agonist application and measurement of fluorescence changes, a FLIPR^TETRA device (Molecular Devices, San José, United States) was used. Viability of cells was tested by application of 100 nM Somatostatin 14 (Bachem, Bubendorf, Switzerland)[42].
# Measured data were negative control corrected by subtracting the signal of the mock-transfected cells and exported to Microsoft Excel using the FLIPR software ScreenWorks 4.2. In Microsoft Excel software, standardization of maximum fluorescence intensities to the basal fluorescence and normalization to the buffer-only control was done to calculate the relative fluorescence changes (ΔF/F).
# Initial screening experiments performed in duplicate wells were confirmed by at least one replication and representative traces were selected for display. All dose-response relationships were determined by three independent experiments (biological replicates) performed in duplicates (technical replicates). Threshold concentrations, defined as lowest substance concentrations leading to statistically significant elevated fluorescence changes in receptor-transfected cells compared with empty vector-transfected cells, were determined using SigmaPlot with Student’s t-test to evaluate statistical significance (p < 0.01).
structure (smiles),measurement,setting,value
"C[C@H](CCC(=O)O)[C@H]1CC[C@H]2[C@@H]3[C@H](O)C[C@@H]4C[C@H](O)CC[C@]4(C)[C@H]3C[C@H](O)[C@]12C [Cholic Acid, cholic acid]",RLU,Time 0 s,0 RLU
same,RLU,Time 2 s,1.777 RLU
same,RLU,Time 4 s,7.834 RLU
same,RLU,Time 6 s,2.675 RLU
same,RLU,Time 8 s,9.829 RLU
same,RLU,Time 12 s,-3.285 RLU
same,RLU,Time 14 s,-7.0734 RLU
same,RLU,Time 16 s,15 RLU
same,RLU,Time 18 s,44.4226 RLU
same,RLU,Time 18.781 s,21.6772 RLU
same,RLU,Time 20.781 s,9.429 RLU
same,RLU,Time 22.781 s,39.5966 RLU
same,RLU,Time 24.781 s,10.8272 RLU
same,RLU,Time 26.781 s,50.2337 RLU
same,RLU,Time 28.781 s,59.2009 RLU
same,RLU,Time 30.781 s,49.6279 RLU
same,RLU,Time 32.781 s,86.2126 RLU
same,RLU,Time 34.781 s,65.8416 RLU
same,RLU,Time 36.781 s,100.025 RLU
same,RLU,Time 38.781 s,89.1237 RLU
same,RLU,Time 40.781 s,115.541 RLU
same,RLU,Time 42.781 s,131.095 RLU
same,RLU,Time 44.781 s,139.548 RLU
same,RLU,Time 46.781 s,164.231 RLU
same,RLU,Time 48.781 s,193.51 RLU
same,RLU,Time 50.781 s,193.303 RLU
same,RLU,Time 52.781 s,217.91 RLU
same,RLU,Time 54.781 s,257.63 RLU
same,RLU,Time 56.781 s,273.677 RLU
same,RLU,Time 58.781 s,284.724 RLU
same,RLU,Time 60.781 s,322.244 RLU
same,RLU,Time 62.781 s,314.427 RLU
same,RLU,Time 64.781 s,342.91 RLU
same,RLU,Time 66.781 s,375.793 RLU
same,RLU,Time 68.781 s,398.01 RLU
same,RLU,Time 70.781 s,424.457 RLU
same,RLU,Time 72.781 s,449.971 RLU
same,RLU,Time 74.781 s,470.44 RLU
same,RLU,Time 76.781 s,487.87 RLU
same,RLU,Time 78.781 s,480.774 RLU
same,RLU,Time 80.781 s,513.812 RLU
same,RLU,Time 82.781 s,513.576 RLU
same,RLU,Time 84.781 s,531.991 RLU
same,RLU,Time 86.781 s,549.947 RLU
same,RLU,Time 88.781 s,553.294 RLU
same,RLU,Time 90.781 s,575.612 RLU
same,RLU,Time 92.781 s,557.955 RLU
same,RLU,Time 94.781 s,575.485 RLU
same,RLU,Time 96.781 s,548.118 RLU
same,RLU,Time 98.781 s,585.897 RLU
same,RLU,Time 100.781 s,576.152 RLU
same,RLU,Time 102.781 s,586.681 RLU
same,RLU,Time 104.781 s,569.701 RLU
same,RLU,Time 106.781 s,551.409 RLU
same,RLU,Time 108.781 s,564.279 RLU
same,RLU,Time 110.781 s,542.028 RLU
same,RLU,Time 112.781 s,544.652 RLU
same,RLU,Time 114.781 s,548.979 RLU
same,RLU,Time 116.781 s,550.607 RLU
same,RLU,Time 118.781 s,555.391 RLU
same,RLU,Time 120.781 s,575.811 RLU
same,RLU,Time 122.781 s,538.707 RLU
same,RLU,Time 124.781 s,581.753 RLU
same,RLU,Time 126.781 s,520.313 RLU
same,RLU,Time 128.781 s,519.484 RLU
same,RLU,Time 130.781 s,535.938 RLU
same,RLU,Time 132.781 s,507.19 RLU
same,RLU,Time 134.781 s,533.269 RLU
same,RLU,Time 136.781 s,500.116 RLU
same,RLU,Time 137.578 s,523.788 RLU
same,RLU,Time 143.578 s,484.404 RLU
same,RLU,Time 149.578 s,476.256 RLU
same,RLU,Time 155.578 s,501.067 RLU
same,RLU,Time 161.578 s,504.009 RLU
same,RLU,Time 167.578 s,489.395 RLU
same,RLU,Time 173.578 s,450.925 RLU
same,RLU,Time 179.578 s,464.442 RLU
same,RLU,Time 185.578 s,417.045 RLU
same,RLU,Time 191.578 s,421.394 RLU
same,RLU,Time 197.578 s,391.24 RLU
same,RLU,Time 203.578 s,344.694 RLU
same,RLU,Time 209.578 s,358.293 RLU
same,RLU,Time 215.578 s,343.137 RLU
same,RLU,Time 221.578 s,329.589 RLU
same,RLU,Time 227.578 s,339.83 RLU
same,RLU,Time 233.578 s,325.692 RLU
same,RLU,Time 239.578 s,315.743 RLU
same,RLU,Time 245.578 s,313.71 RLU
same,RLU,Time 293.578 s,197.324 RLU
same,RLU,Time 299.578 s,152.865 RLU
same,RLU,Time 305.578 s,156.643 RLU
same,RLU,Time 311.578 s,134.046 RLU
same,RLU,Time 317.578 s,124.601 RLU
same,RLU,Time 323.578 s,131.88 RLU
same,RLU,Time 329.578 s,133.734 RLU
same,RLU,Time 335.578 s,174.038 RLU
same,RLU,Time 341.578 s,165.309 RLU
same,RLU,Time 347.578 s,173.556 RLU
same,RLU,Time 353.578 s,191.675 RLU
same,RLU,Time 359.578 s,226.638 RLU
same,Activation threshold concentration Tas2r105,p < 0.01 vs empty vector,300 µM
